Measured values taken from publication PMC5218480 (PLoS ONE, 2017).

Tested on: MV-4-11 cells
Experiment: Gene expression microarray analysis (Affymetrix PrimeView) and GSEA
Type: cell-based, human
Set-up: RFU PODN (11730768_x_at) / Fold change /veh PODN (11730768_x_at) / RFU LINC00158 (11744669_a_at) / Fold change /veh LINC00158 (11744669_a_at) / RFU DUSP10 (11751237_a_at) / Fold change /veh DUSP10 (11751237_a_at) / RFU ID3 (11757404_x_at) / Fold change /veh ID3 (11757404_x_at) / RFU PLEKHG5 (11737974_s_at) / Fold change /veh PLEKHG5 (11737974_s_at) / RFU LRRC4B (11730491_at) / Fold change /veh LRRC4B (11730491_at) / RFU GIMAP4 (11747438_a_at) / Fold change /veh GIMAP4 (11747438_a_at) / RFU KRT8 (11758183_x_at) / Fold change /veh KRT8 (11758183_x_at) / RFU CNN1 (11734310_a_at) / Fold change /veh CNN1 (11734310_a_at) / RFU VPS37D (11726825_at) / Fold change /veh VPS37D (11726825_at) / RFU C10orf10 (11716522_x_at) / Fold change /veh C10orf10 (11716522_x_at) / RFU KIR2DL2 /// KIR2DL4 /// KIR2DL5A /// KIR2DL5B /// KIR2DS1 /// KIR2DS2 /// KIR2DS3 /// KIR2DS4 /// KIR3DL3 /// KIR3DL3 /// KIR3DS1 (11738374_at) / Fold change /veh KIR2DL2 /// KIR2DL4 /// KIR2DL5A /// KIR2DL5B /// KIR2DS1 /// KIR2DS2 /// KIR2DS3 /// KIR2DS4 /// KIR3DL3 /// KIR3DL3 /// KIR3DS1 (11738374_at) / RFU C1QL1 (11718748_at) / Fold change /veh C1QL1 (11718748_at) / RFU TMPRSS4 (11747572_a_at) / Fold change /veh TMPRSS4 (11747572_a_at) / RFU HAMP (11756126_x_at) / Fold change /veh HAMP (11756126_x_at) / RFU RNFT2 (11725882_a_at) / Fold change /veh RNFT2 (11725882_a_at) / RFU NR4A2 (11747474_a_at) / Fold change /veh NR4A2 (11747474_a_at) / RFU ABCC12 (11746883_a_at) / Fold change /veh ABCC12 (11746883_a_at) / RFU TMEM136 (11760407_x_at) / Fold change /veh TMEM136 (11760407_x_at) / RFU CLDN22 /// WWC2 (11732394_at) / Fold change /veh CLDN22 /// WWC2 (11732394_at) / RFU HLA-DPB1 (11760878_x_at) / Fold change /veh HLA-DPB1 (11760878_x_at) / RFU SPINT1 (11716480_a_at) / Fold change /veh SPINT1 (11716480_a_at) / RFU GAP43 (11754022_s_at) / Fold change /veh GAP43 (11754022_s_at) / RFU A4GNT (11735810_at) / Fold change /veh A4GNT (11735810_at) / RFU PRB3 (11715151_x_at) / Fold change /veh PRB3 (11715151_x_at) / RFU TUBB4B (11761932_at) / Fold change /veh TUBB4B (11761932_at) / RFU CAPN14 (11732068_a_at) / Fold change /veh CAPN14 (11732068_a_at) / RFU TMCC2 (11721928_a_at) / Fold change /veh TMCC2 (11721928_a_at) / RFU IRGQ (11745062_a_at) / Fold change /veh IRGQ (11745062_a_at) / RFU FAM174B (11720279_a_at) / Fold change /veh FAM174B (11720279_a_at) / RFU TMPRSS4 (11748680_a_at) / Fold change /veh TMPRSS4 (11748680_a_at) / RFU FAM212B (11763350_a_at) / Fold change /veh FAM212B (11763350_a_at) / RFU PLEKHG5 (11743358_a_at) / Fold change /veh PLEKHG5 (11743358_a_at) / RFU ZSCAN30 (11745921_a_at) / Fold change /veh ZSCAN30 (11745921_a_at) / RFU CMKLR1 (11741424_a_at) / Fold change /veh CMKLR1 (11741424_a_at) / RFU LOC101060620 /// MAPK8IP1 (11723275_at) / Fold change /veh LOC101060620 /// MAPK8IP1 (11723275_at) / RFU SPTSSB (11747773_x_at) / Fold change /veh SPTSSB (11747773_x_at) / RFU PRSS12 (11739890_at) / Fold change /veh PRSS12 (11739890_at) / RFU BIN1 (11741810_x_at) / Fold change /veh BIN1 (11741810_x_at) / RFU WNT11 (11732464_a_at) / Fold change /veh WNT11 (11732464_a_at) / RFU C10orf10 (11716521_a_at) / Fold change /veh C10orf10 (11716521_a_at) / RFU C5orf56 (11738089_at) / Fold change /veh C5orf56 (11738089_at) / RFU CYB561 (11721691_x_at) / Fold change /veh CYB561 (11721691_x_at) / RFU ANKRD19P (11752326_a_at) / Fold change /veh ANKRD19P (11752326_a_at) / RFU OR2T12 /// OR2T33 /// OR2T8 (11738714_s_at) / Fold change /veh OR2T12 /// OR2T33 /// OR2T8 (11738714_s_at) / RFU VCAN (11748164_a_at) / Fold change /veh VCAN (11748164_a_at) / RFU JSRP1 (11732532_at) / Fold change /veh JSRP1 (11732532_at) / RFU KRTAP10-11 (11738290_x_at) / Fold change /veh KRTAP10-11 (11738290_x_at) / RFU MYO3A (11730013_a_at) / Fold change /veh MYO3A (11730013_a_at) / RFU EBF3 (11725865_a_at) / Fold change /veh EBF3 (11725865_a_at) / RFU CAMK2N1 (11719241_x_at) / Fold change /veh CAMK2N1 (11719241_x_at) / RFU C5orf56 (11738088_a_at) / Fold change /veh C5orf56 (11738088_a_at) / RFU OLFML3 (11715873_a_at) / Fold change /veh OLFML3 (11715873_a_at) / RFU LOC100653217 /// NTM (11731650_a_at) / Fold change /veh LOC100653217 /// NTM (11731650_a_at) / RFU MAPK11 (11762145_a_at) / Fold change /veh MAPK11 (11762145_a_at) / RFU FIZ1 (11724087_x_at) / Fold change /veh FIZ1 (11724087_x_at) / RFU OASL (11726364_x_at) / Fold change /veh OASL (11726364_x_at) / RFU SOX15 (11748057_x_at) / Fold change /veh SOX15 (11748057_x_at) / RFU CD79A (11719716_a_at) / Fold change /veh CD79A (11719716_a_at) / RFU HIST1H1D (11736915_at) / Fold change /veh HIST1H1D (11736915_at) / RFU CASKIN2 (11723855_a_at) / Fold change /veh CASKIN2 (11723855_a_at) / RFU LOC730098 (11760151_x_at) / Fold change /veh LOC730098 (11760151_x_at) / RFU OR4N2 (11742367_at) / Fold change /veh OR4N2 (11742367_at) / RFU PRRT2 (11749266_a_at) / Fold change /veh PRRT2 (11749266_a_at) / RFU SNX32 (11753110_a_at) / Fold change /veh SNX32 (11753110_a_at) / RFU CDHR5 (11726645_a_at) / Fold change /veh CDHR5 (11726645_a_at) / RFU RCAN1 (11760418_a_at) / Fold change /veh RCAN1 (11760418_a_at) / RFU FAM167A (11723789_a_at) / Fold change /veh FAM167A (11723789_a_at) / RFU FAM26E (11764081_at) / Fold change /veh FAM26E (11764081_at) / RFU ISYNA1 (11749810_s_at) / Fold change /veh ISYNA1 (11749810_s_at) / RFU ACY1 (11761880_at) / Fold change /veh ACY1 (11761880_at) / RFU 11764098_at / Fold change /veh 11764098_at / RFU SAMD14 (11745864_x_at) / Fold change /veh SAMD14 (11745864_x_at) / RFU NPB (11741838_a_at) / Fold change /veh NPB (11741838_a_at) / RFU TMPRSS6 (11731388_a_at) / Fold change /veh TMPRSS6 (11731388_a_at) / RFU KRTAP10-2 (11738614_at) / Fold change /veh KRTAP10-2 (11738614_at) / RFU ARHGAP8 /// PRR5-ARHGAP8 (11727945_x_at) / Fold change /veh ARHGAP8 /// PRR5-ARHGAP8 (11727945_x_at) / RFU KRTAP5-7 /// NADSYN1 (11734609_at) / Fold change /veh KRTAP5-7 /// NADSYN1 (11734609_at) / RFU RASL12 (11751679_a_at) / Fold change /veh RASL12 (11751679_a_at) / RFU CDKN2B (11736163_a_at) / Fold change /veh CDKN2B (11736163_a_at) / RFU PRF1 (11729649_at) / Fold change /veh PRF1 (11729649_at) / RFU, ZNF638 /// ZNF638-IT1 / Fold change vs veh, ZNF638 /// ZNF638-IT1 / RFU, PANK3 / Fold change vs veh, PANK3 / RFU, SH3YL1 / Fold change vs veh, SH3YL1 / RFU, ZEB2 / Fold change vs veh, ZEB2 / RFU, NRIP1 / Fold change vs veh, NRIP1 / RFU, PTTG1IP / Fold change vs veh, PTTG1IP / RFU, CAPN2 / Fold change vs veh, CAPN2 / RFU, MED14 / Fold change vs veh, MED14 / RFU, SNORA58 / Fold change vs veh, SNORA58 / RFU, C1orf63 / Fold change vs veh, C1orf63 / RFU, LRRFIP1 / Fold change vs veh, LRRFIP1 / RFU, NDUFAF7 / Fold change vs veh, NDUFAF7 / RFU, SLC12A2 / Fold change vs veh, SLC12A2 / RFU, IBTK / Fold change vs veh, IBTK / RFU, ESF1 / Fold change vs veh, ESF1 / Fold change vs veh, TMEM50B / RFU, TAOK1 / Fold change vs veh, TAOK1 / RFU, ACBD3 / Fold change vs veh, ACBD3 / RFU, TMA16 / Fold change vs veh, TMA16 / RFU, RWDD3 / Fold change vs veh, RWDD3 / RFU, BCAT1 / Fold change vs veh, BCAT1 / RFU, EDEM3 / Fold change vs veh, EDEM3 / RFU, TMEM33 / Fold change vs veh, TMEM33 / RFU, WDR75 / Fold change vs veh, WDR75 / RFU, AHCTF1 / Fold change vs veh, AHCTF1 / RFU, TFRC / Fold change vs veh, TFRC / RFU, ZDHHC17 / Fold change vs veh, ZDHHC17 / RFU, NOM1 / Fold change vs veh, NOM1 / RFU, ARL8B / Fold change vs veh, ARL8B / RFU, ZBTB11 / Fold change vs veh, ZBTB11 / RFU, TAMM41 / Fold change vs veh, TAMM41 / RFU, KIAA1704 /// LOC100996395 / Fold change vs veh, KIAA1704 /// LOC100996395 / RFU, ING1 / Fold change vs veh, ING1 / RFU, TRMT61B / Fold change vs veh, TRMT61B / RFU, FUBP3 / Fold change vs veh, FUBP3 / RFU, TP53 / Fold change vs veh, TP53 / RFU, TNKS2 / Fold change vs veh, TNKS2 / RFU, ZFP14 / Fold change vs veh, ZFP14 / RFU, ACTR2 / Fold change vs veh, ACTR2 / RFU, PPP3R1 / Fold change vs veh, PPP3R1 / RFU, PIK3R1 / Fold change vs veh, PIK3R1 / RFU, HNRNPA1 / Fold change vs veh, HNRNPA1 / RFU, RNF170 / Fold change vs veh, RNF170 / RFU, ZNF28 / Fold change vs veh, ZNF28 / RFU, RNGTT / Fold change vs veh, RNGTT / RFU, OGT / Fold change vs veh, OGT / RFU, BRD1 / Fold change vs veh, BRD1 / RFU, MARS / Fold change vs veh, MARS / RFU, ZNF655 / Fold change vs veh, ZNF655 / RFU, FAHD1 / Fold change vs veh, FAHD1 / RFU, BDP1 / Fold change vs veh, BDP1 / RFU, LRRCC1 / Fold change vs veh, LRRCC1 / RFU, ARID1A / Fold change vs veh, ARID1A / RFU, ZNF146 / Fold change vs veh, ZNF146 / RFU, ZNF330 / Fold change vs veh, ZNF330 / RFU, GPN3 / Fold change vs veh, GPN3 / RFU, C9orf123 / Fold change vs veh, C9orf123 / RFU, N4BP2L2 / Fold change vs veh, N4BP2L2 / RFU, ARFIP1 / Fold change vs veh, ARFIP1 / RFU, FAM179B / Fold change vs veh, FAM179B / RFU, BCL10 / Fold change vs veh, BCL10 / RFU, UHRF1BP1L / Fold change vs veh, UHRF1BP1L / RFU, BET1 / Fold change vs veh, BET1 / RFU, CNOT2 / Fold change vs veh, CNOT2 / RFU, ZNF268 / Fold change vs veh, ZNF268 / Fold change vs veh, ZNF507 / RFU, DGCR2 / Fold change vs veh, DGCR2 / RFU, WDSUB1 / Fold change vs veh, WDSUB1 / Fold change vs veh, HSP90B1 /// MIR3652 / RFU, ADSS / Fold change vs veh, ADSS / RFU, GK / Fold change vs veh, GK / RFU, ZNF148 / Fold change vs veh, ZNF148 / RFU, TAF9 / Fold change vs veh, TAF9 / RFU, SLC1A5 / Fold change vs veh, SLC1A5 / RFU, SLMO2 / Fold change vs veh, SLMO2 / RFU, ABCC4 / Fold change vs veh, ABCC4 / RFU, LOC101060439 /// RAP1B / Fold change vs veh, LOC101060439 /// RAP1B / RFU, RFX7 / Fold change vs veh, RFX7 / RFU, GTPBP10 / Fold change vs veh, GTPBP10 / RFU, CNEP1R1 / Fold change vs veh, CNEP1R1 / RFU, BIVM-ERCC5 /// ERCC5 / Fold change vs veh, BIVM-ERCC5 /// ERCC5 / RFU, ILF3 / Fold change vs veh, ILF3 / RFU 11762660_at / Fold change /veh 11762660_at / RFU VCAN (11757783_s_at) / Fold change /veh VCAN (11757783_s_at) / RFU DDX43 (11728927_at) / Fold change /veh DDX43 (11728927_at) / RFU KRT8 (11758188_x_at) / Fold change /veh KRT8 (11758188_x_at) / RFU NKD1 (11759106_at) / Fold change /veh NKD1 (11759106_at) / RFU SRD5A1 (11742802_a_at) / Fold change /veh SRD5A1 (11742802_a_at) / RFU TPSAB1 /// TPSB2 (11721975_s_at) / Fold change /veh TPSAB1 /// TPSB2 (11721975_s_at) / RFU GSTM3 (11746129_a_at) / Fold change /veh GSTM3 (11746129_a_at) / RFU IL23R (11737362_x_at) / Fold change /veh IL23R (11737362_x_at) / RFU TMEM51 (11727254_a_at) / Fold change /veh TMEM51 (11727254_a_at) / RFU PIWIL2 (11732686_x_at) / Fold change /veh PIWIL2 (11732686_x_at) / RFU ORM1 (11744905_x_at) / Fold change /veh ORM1 (11744905_x_at) / RFU CCDC152 (11743942_at) / Fold change /veh CCDC152 (11743942_at) / RFU ECM1 (11717891_a_at) / Fold change /veh ECM1 (11717891_a_at) / RFU IL23R (11748794_a_at) / Fold change /veh IL23R (11748794_a_at) / RFU TNFAIP8L3 (11732012_x_at) / Fold change /veh TNFAIP8L3 (11732012_x_at) / RFU MBOAT4 (11741988_at) / Fold change /veh MBOAT4 (11741988_at) / RFU 11764193_at / Fold change /veh 11764193_at / RFU TMEM53 (11763286_at) / Fold change /veh TMEM53 (11763286_at) / RFU MAGEB2 (11727129_at) / Fold change /veh MAGEB2 (11727129_at) / RFU TMEM200A (11744735_a_at) / Fold change /veh TMEM200A (11744735_a_at) / RFU CCDC152 (11751479_a_at) / Fold change /veh CCDC152 (11751479_a_at) / RFU FAM211A (11726209_a_at) / Fold change /veh FAM211A (11726209_a_at) / RFU RGS16 (11746705_a_at) / Fold change /veh RGS16 (11746705_a_at) / RFU VCAN (11755009_s_at) / Fold change /veh VCAN (11755009_s_at) / RFU RHOB (11743442_s_at) / Fold change /veh RHOB (11743442_s_at) / RFU RGS16 (11720943_a_at) / Fold change /veh RGS16 (11720943_a_at) / RFU RGS16 (11720944_at) / Fold change /veh RGS16 (11720944_at) / RFU, VPS4B / Fold change vs veh, VPS4B / RFU, CREB1 / Fold change vs veh, CREB1 / RFU, DNAJC13 / Fold change vs veh, DNAJC13 / RFU, GNAQ / Fold change vs veh, GNAQ / RFU, CDK5R1 / Fold change vs veh, CDK5R1 / RFU, ZRANB3 / Fold change vs veh, ZRANB3 / RFU, CUL4A / Fold change vs veh, CUL4A / RFU, CCNY / Fold change vs veh, CCNY / RFU, UFL1 / Fold change vs veh, UFL1 / RFU, COG3 / Fold change vs veh, COG3 / RFU, DIAPH2 / Fold change vs veh, DIAPH2 / RFU, SKA2 / Fold change vs veh, SKA2 / RFU, AFF3 / Fold change vs veh, AFF3 / RFU, LMF1 / Fold change vs veh, LMF1 / RFU, IPO11 / Fold change vs veh, IPO11 / RFU, DFFB / Fold change vs veh, DFFB / RFU, FOXP1 / Fold change vs veh, FOXP1 / RFU, CARD8 / Fold change vs veh, CARD8 / RFU, STRN3 / Fold change vs veh, STRN3 / RFU, ADK / Fold change vs veh, ADK / RFU, RASSF2 / Fold change vs veh, RASSF2 / RFU, WIPF1 / Fold change vs veh, WIPF1 / RFU, LARP1B / Fold change vs veh, LARP1B / RFU, RASA1 / Fold change vs veh, RASA1 / RFU, RB1 / Fold change vs veh, RB1 / RFU, PPFIA1 / Fold change vs veh, PPFIA1 / RFU, MAT2A / Fold change vs veh, MAT2A / RFU, CCT5 / Fold change vs veh, CCT5 / RFU, WDR92 / Fold change vs veh, WDR92 / RFU, CUX1 / Fold change vs veh, CUX1 / RFU, TTC7A / Fold change vs veh, TTC7A / RFU, TMEM135 / Fold change vs veh, TMEM135 / RFU, DEPTOR / Fold change vs veh, DEPTOR / RFU, CPM / Fold change vs veh, CPM / RFU, DNAJB6 / Fold change vs veh, DNAJB6 / RFU, CACNA2D3 / Fold change vs veh, CACNA2D3 / RFU, DTX4 / Fold change vs veh, DTX4 / RFU, TFCP2 / Fold change vs veh, TFCP2 / RFU, GMCL1 /// GMCL1P1 / Fold change vs veh, GMCL1 /// GMCL1P1 / RFU, AEBP2 / Fold change vs veh, AEBP2 / RFU, SNHG1 /// SNORD22 /// SNORD25 /// SNORD26 /// SNORD27 /// SNORD28 /// SNORD29 /// SNORD31 / Fold change vs veh, SNHG1 /// SNORD22 /// SNORD25 /// SNORD26 /// SNORD27 /// SNORD28 /// SNORD29 /// SNORD31 / Fold change (Aza/veh), C12orf56 (ProbeSet 11735607_a_at) / Fold change (ACY-1035/veh), C12orf56 (ProbeSet 11735607_a_at) / Fold change (Aza/veh), FGFR1OP (ProbeSet 11751329_s_at) / Fold change (ACY-1035/veh), FGFR1OP (ProbeSet 11751329_s_at) / Fold change (Aza/veh), VPS36 (ProbeSet 11739960_a_at) / Fold change (ACY-1035/veh), VPS36 (ProbeSet 11739960_a_at) / RFU SYPL1 (11715823_x_at) / Fold change /veh SYPL1 (11715823_x_at) / RFU IGFBP7 (11715501_s_at) / Fold change /veh IGFBP7 (11715501_s_at) / RFU REEP3 (11722064_at) / Fold change /veh REEP3 (11722064_at) / RFU IGLL1 (11728026_x_at) / Fold change /veh IGLL1 (11728026_x_at): dose or concentration left out as unconfirmed
Details: ProbeSet 11716844_s_at; LIST D

For `Nc1ccc(-c2cccs2)cc1NC(=O)c1ccc2c(c1)cc(C1CC1)n2CCN1CCOCC1` [ACY-1035], the “Fold change vs veh, DNAJC13” value was 0.91.
